For one assay, the system named is PC-3 cells. Nature of the assay: Cell viability assay (OZBlue). Type of assay: cell-based. As to conditions: Homo sapiens. As to the method:
PC-3 cells were seeded and treated in 96 plates for 24, 48, and 72 h. Cell viability was assessed by adding to the cells 10% of the culture medium volume of the OZBlue reagent (OZ Biosciences). Cells were incubated at 37 °C for 1 h. Fluorescence was then determined (excitation 560 nm and emission 590 nm) by a Tecan microplate reader. Cell survival was calculated with respect to control (DMSO), and IC50 values were determined by fitting with GraphPad Prism software.

A further assay addresses T1, human YTHDF2 YTH domain (Homo sapiens, UniProt Q9Y5A9).
T1 construct: the human YTHDF2 YTH domain (amino acids 383–553, PDB: 4WQN); made in house; host or cells: E. coli BL21(DE3)
T1 sequence (Q9Y5A9 383-553): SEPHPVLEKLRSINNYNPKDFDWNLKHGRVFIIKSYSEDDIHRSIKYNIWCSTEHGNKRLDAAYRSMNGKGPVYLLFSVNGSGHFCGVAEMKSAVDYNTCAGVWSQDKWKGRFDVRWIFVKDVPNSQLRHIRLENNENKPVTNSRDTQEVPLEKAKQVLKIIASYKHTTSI
Nature of the assay: Tryptophan fluorescence quenching assay. Type of assay: binding. How it is done: (§1) Fluorescence was measured using a Tecan Infinite 200 Microplate reader (Tecan Group Ltd.), setting the […] wavelength at 288 nm and collecting the emission data at 330 nm.

Another assay deals with T2, YTHDF1 YTH domain (Homo sapiens, UniProt Q9BYJ9).
T2 construct: The human YTHDF1 YTH domain (amino acids 365–554, PDB: 4RCJ); host or cells: E. coli BL21(DE3)
T2 sequence (Q9BYJ9 365-554): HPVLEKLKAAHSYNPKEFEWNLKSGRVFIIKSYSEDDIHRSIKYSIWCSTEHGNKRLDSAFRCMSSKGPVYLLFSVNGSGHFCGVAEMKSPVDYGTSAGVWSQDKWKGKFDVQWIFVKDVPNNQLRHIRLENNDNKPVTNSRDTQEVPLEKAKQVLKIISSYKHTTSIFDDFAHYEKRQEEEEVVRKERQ
Nature of the assay: Tryptophan fluorescence quenching assay. The assay is classed as binding. As to the method: as §1

The target in assay [1] is T3, YTH domain of the YTHDC1 protein (Homo sapiens, UniProt Q96MU7).
T3 construct: made in house
Put plainly: Tryptophan fluorescence quenching assay. The assay is classed as binding. How it is done:
as §1

For assay [2], the system named is m6A levels in poly(A) purified mRNA of PC-3 cells. Put plainly: m6A level by 2D thin-layer chromatography. As to conditions: 24 h time frame. Type of assay: cell-based, human. How it is done: 100 ng of the poly(A) purified RNA was used as the input. Processed samples were analyzed on glass-backed PEI-cellulose plates (MerckMillipore) as described previously. Plates were exposed to a storage phosphor screen below saturation and processed on a Typhoon NIR laser scanner (Cytiva). Quantification of individual nucleotides was done with ImageJ. The relative amount of m6A was calculated as a percent of the total A (sum of both A and m6A spot intensity).

Assay [3] addresses T4, recombinant YTH domain of the YTHDF1 protein (Homo sapiens, UniProt Q9BYJ9).
T4 construct: The human YTHDF1 YTH domain (amino acids 365–554, PDB: 4RCJ); host or cells: E. coli BL21(DE3)
T4 sequence (Q9BYJ9 365-554): T2 sequence (Q9BYJ9 365-554)
Nature of the assay: ESI-MS of the protein after incubation with the compound. The assay is classed as binding.

From PMC9578143, “Small-Molecule Ebselen Binds to YTHDF Proteins Interfering with the Recognition of N^6-Methyladenosine-Modified RNAs” (ACS Pharmacology & Translational Science, 2022) come the findings set out here.

Read-outs that look alike come from different tables or passages of the source.

Consider `O=c1c2ccccc2[se]n1-c1ccccc1` [Compound 1, 2-phenyl-1,2-benzisoselenazol-3(2H)-one], for which the IC50 (commonly the point on the concentration scale where inhibition reaches its midpoint) in the assay on PC-3 cells (24 h) turned out to be 58.8 µM; in the assay on PC-3 cells (48 h), 49.6 µM; in the assay on PC-3 cells (72 h) it was 26.8 µM. Besides, the EC50 (as a rule, the concentration giving half of the maximal effect) came out at 1660 nM at human YTHDF2 YTH domain; 1.63 µM on YTHDF1 YTH domain (5 μM protein, read-out: EC50 (tryptophan quenching)); 1.5 ± 0.24 µM at YTHDF1 YTH domain (Table 1, read-out: EC50 (μM) (Tryptophan quenching)). Besides, the “Interaction with the YTH domain (tryptophan fluorescence, in words)” value in assay [1] (listed as Ebselen) is listed as “cannot reduce tryptophan fluorescence”; in assay [1] (listed as ebselen), “did not interact”. Also, the “Overall m6A methylation level (in words)” value in assay [2] is given as “no significant changes”. Moreover, the “Mass shift of the YTH domain (ESI-MS)” value in assay [3] (5 μM protein, 50 μM compound, 60 min, no DTT) came to 274.96 Da. Also, the “Mass of the YTH domain after incubation (ESI-MS, in words)” value in assay [3] (in the presence of 1 mM DTT) is recorded as “matched that of the unmodified YTH domain”.
